PMC7534336, “New classes of potent heparanase inhibitors from ligand-based virtual screening” (Journal of Enzyme Inhibition and Medicinal Chemistry, 2020)
“And” between values parts separate entries of the source, which are not always exact repeats. Equal values may be shown once. Read-outs that look alike come from different tables or passages of the source.

Target: human GS3 heparanase (Homo sapiens, UniProt Q9Y251)
Test: fondaparinux assay of heparanase enzymatic activity (WST-1 colorimetric)
Assay type: biochemical
Conditions: for % inhib @25 M ± SD: fixed concentration 25 µM (25 M [sic]); for % inhib @2.5 M ± SD: fixed concentration 2.5 µM (2.5 M [sic])
From the text: To determine the activity of the heparanase inhibitors, a homogeneous assay based on the cleavage of the synthetic heparin oligosaccharide fondaparinux (Arixtra; Aspen) was used. The assay measures colorimetrically the appearance of the disaccharide product of heparanase-catalysed fondaparinux cleavage using the tetrazolium salt WST-1. The assay was essentially performed as described[39] with minor modifications. Briefly, Nunc 96-well (Thermo Fisher Scientific) plates were pre-treated with a solution of 4% BSA (bovine serum albumin, Sigma-Aldrich) in phosphate-buffered saline containing 0.05% Tween 20 (PBST), for 2 h at 37 °C, and then washed three times with PBST. […] The IC50 value for each compound was calculated by GraphPad software. Finally, the measurements were corrected by subtracting both the reagent background and the inner absorbance value of test compound.
Supporting Table S1 reports the structures of the fifty-five compounds purchased and tested, with information, for each compound, on the database from which it was retrieved, the reference inhibitor used to retrieve it and the similarity value with the reference inhibitor.

[1] = fondaparinux assay on human GS3 heparanase, mean of triplicates, read-out: IC50 (µM) ± SD, heparanase inhibitory activity
[2] = Table S1, fondaparinux assay on GS3 heparanase, read-out: IC50 (M) ± SD
[3] = fondaparinux assay on human GS3 heparanase, mean of triplicates

Chain of human GS3 heparanase (Q9Y251 other isoform, or with tags, fused parts or gaps): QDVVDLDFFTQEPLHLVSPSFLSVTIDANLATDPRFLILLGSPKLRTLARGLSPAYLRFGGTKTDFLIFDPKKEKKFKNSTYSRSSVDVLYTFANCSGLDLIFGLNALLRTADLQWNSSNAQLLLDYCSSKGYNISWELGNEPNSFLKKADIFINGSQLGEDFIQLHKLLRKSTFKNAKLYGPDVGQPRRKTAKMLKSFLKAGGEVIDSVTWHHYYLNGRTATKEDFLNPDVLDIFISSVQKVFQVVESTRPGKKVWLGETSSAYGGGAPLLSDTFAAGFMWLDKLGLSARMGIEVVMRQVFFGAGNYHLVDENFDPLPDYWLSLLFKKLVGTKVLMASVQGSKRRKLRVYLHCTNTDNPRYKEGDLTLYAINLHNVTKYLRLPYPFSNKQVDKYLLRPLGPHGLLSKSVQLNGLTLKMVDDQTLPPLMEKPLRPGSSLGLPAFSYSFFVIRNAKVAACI

% inhib @25 M ± SD (Table S1) | % inhib @2.5 M ± SD (Table S1) | Structure (SMILES) | further results
63 ± 16% | 60 ± 21% | O=C(Nc1ccc(-c2nc3ccccc3o2)cc1)c1ccc(Oc2ccc(C(=O)Nc3ccc(-c4nc5ccccc5o4)cc3)cc2)cc1 [Compound 39] | 
76 ± 2% | 54 ± 6% | O=C(Nc1nc(-c2ccc3ccccc3c2)cs1)c1ccc(Oc2ccc(C(=O)Nc3nc(-c4ccc5ccccc5c4)cs3)cc2)cc1 [Compound 41] | 
67 ± 4% | 44 ± 1% | O=C(Nc1nc(-c2ccc(F)cc2)cs1)c1ccc(Oc2ccc(C(=O)Nc3nc(-c4ccc(F)cc4)cs3)cc2)cc1 [Compound 43] | 
60 ± 5% | 62 ± 2% | O=C(Nc1ccc(Oc2ccc(NC(=O)c3ccc4c(c3)C(=O)N(c3nccs3)C4=O)cc2)cc1)c1ccc2c(c1)C(=O)N(c1nccs1)C2=O [Compound 44] | 
67 ± 4% | 41 ± 3% | O=C(Nc1c[nH]c(=O)[nH]c1=O)c1ccc2c(c1)C(=O)N(c1ccc(Oc3ccc(N4C(=O)c5ccc(C(=O)Nc6c[nH]c(=O)[nH]c6=O)cc5C4=O)cc3)cc1)C2=O [Compound 45] | 
66 ± 5% | 30 ± 3% | O=C(Nc1ccc(Sc2ccc(Oc3ccc(Sc4ccc(NC(=O)c5cccc(F)c5)cc4)cc3)cc2)cc1)c1cccc(F)c1 [Compound 47] | 
77 ± 4% | 42 ± 6% | O=C(Nc1ccc(O)cc1C(=O)O)c1ccc(Oc2ccc(C(=O)Nc3ccc(O)cc3C(=O)O)cc2)cc1 [Compound 51] | 
54 ± 8% | 45 ± 7% | O=C(O)c1cc(NC(=O)c2ccc(S(=O)(=O)c3ccc(C(=O)Nc4cc(C(=O)O)cc(C(=O)O)c4)cc3)cc2)cc(C(=O)O)c1 [Compound 52] | 
72 ± 1% | 22 ± 7% | O=C(O)c1cccc(NC(=O)c2ccc(S(=O)(=O)c3ccc(C(=O)Nc4cccc(C(=O)O)c4)cc3)cc2)c1 [Compound 54] | 
43 ± 7% | 30 ± 4% | O=C(O)c1ccc(NC(=O)c2ccc(S(=O)(=O)c3ccc(C(=O)Nc4ccc(C(=O)O)cc4)cc3)cc2)cc1 [Compound 55] | 
51 ± 5% | 20 ± 5% | O=C(O)CCC(=O)Nc1ccc(Oc2ccc(S(=O)(=O)c3ccc(Oc4ccc(NC(=O)CCC(=O)O)cc4)cc3)cc2)cc1 [Compound 56] | 
65 ± 4% | 53 ± 12% | O=C(O)c1ccc(N2C(=O)c3ccc(Oc4cccc(Oc5ccc6c(c5)C(=O)N(c5ccc(C(=O)O)cc5)C6=O)c4)cc3C2=O)cc1 [Compound 60] | 

Second part, the molecule before the results:

Structure (SMILES) | % inhib @25 M ± SD (Table S1) | % inhib @2.5 M ± SD (Table S1) | further results
O=C(Nc1cccc(C(=O)Nc2ccc(S(=O)(=O)O)c3cc(S(=O)(=O)O)cc(S(=O)(=O)O)c23)c1)Nc1cccc(C(=O)Nc2ccc(S(=O)(=O)O)c3cc(S(=O)(=O)O)cc(S(=O)(=O)O)c23)c1 [Compound 9] | Not active |  | 
O=C(Nc1cccc(C(=O)Nc2cc(C(=O)Nc3ccc(S(=O)(=O)O)c4cc(S(=O)(=O)O)cc(S(=O)(=O)O)c34)ccc2F)c1)Nc1cccc(C(=O)Nc2cc(C(=O)Nc3ccc(S(=O)(=O)O)c4cc(S(=O)(=O)O)cc(S(=O)(=O)O)c34)ccc2F)c1 [Compound 10] | 100 ± 1% | 39 ± 3% | 
O=C(Nc1ccc2c(O)c(N=Nc3ccc(N=Nc4ccc(S(=O)(=O)O)cc4)cc3S(=O)(=O)O)c(S(=O)(=O)O)cc2c1)Nc1ccc2c(O)c(N=Nc3ccc(N=Nc4ccc(S(=O)(=O)O)cc4)cc3S(=O)(=O)O)c(S(=O)(=O)O)cc2c1 [Compound 15] |  |  | IC50 [1]: 0.93 ± 0.07 µM
COc1cc(N=Nc2cccc(S(=O)(=O)O)c2)ccc1NC(=O)Nc1ccc(N=Nc2ccc(O)c(C(=O)O)c2)cc1 [Compound 17] | 95 ± 1% | 14 ± 2% | 
O=C(Nc1ccc2c(O)c(N=Nc3ccccc3)c(S(=O)(=O)O)cc2c1)Nc1ccc2c(O)c(N=Nc3ccccc3)c(S(=O)(=O)O)cc2c1 [Compound 18] | 11 ± 3% | 12 ± 3% | 
Nc1ccc2cc(S(=O)(=O)O)cc(O)c2c1N=Nc1ccc(NC(=O)Nc2ccc(N=Nc3c(N)ccc4cc(S(=O)(=O)O)cc(O)c34)c(S(=O)(=O)O)c2)cc1S(=O)(=O)O [Compound 20] |  |  | IC50 [1]: 1.76 ± 0.23 µM
O=C(Nc1ccc(Br)cc1C(=O)O)c1ccc(Oc2ccc(C(=O)Nc3ccc(Br)cc3C(=O)O)cc2)cc1 [Compound 21] |  |  | IC50 [1]: 2.66 ± 0.32 µM
O=C(Nc1ccccc1Oc1ccc(C(=O)O)c(C(=O)O)c1)c1ccc(Oc2ccc(C(=O)Nc3ccccc3Oc3ccc(C(=O)O)c(C(=O)O)c3)cc2)cc1 [Compound 22] | 60 ±1% | 21 ± 1% | 
O=C(Nc1ccccc1C(=O)O)c1ccc2c(c1)C(=O)N(c1ccc(Oc3ccc(N4C(=O)c5ccc(C(=O)Nc6ccccc6C(=O)O)cc5C4=O)cc3)cc1)C2=O [Compound 23] | 96 ± 3% |  | 
O=C(Nc1ccccc1C(=O)O)c1ccc2c(c1)C(=O)N(c1ccc(S(=O)(=O)c3ccc(N4C(=O)c5ccc(C(=O)Nc6ccccc6C(=O)O)cc5C4=O)cc3)cc1)C2=O [Compound 24] |  |  | IC50 [1]: 1.1 ± 0.13 µM
O=C(O)c1ccc2c(c1)C(=O)N(NC(=O)c1ccc(Oc3ccc(C(=O)NN4C(=O)c5ccc(C(=O)O)cc5C4=O)cc3)cc1)C2=O [Compound 25] | Not active |  | 
O=C(O)c1cc(C(=O)O)cc(N2C(=O)c3ccc(C(=O)c4ccc5c(c4)C(=O)N(c4cc(C(=O)O)cc(C(=O)O)c4)C5=O)cc3C2=O)c1 [Compound 26] | 99 ± 6% | 35 ± 1% | 
O=C(O)c1ccc(Oc2ccc3c(c2)C(=O)N(c2ccc(S(=O)(=O)c4ccc(N5C(=O)c6ccc(Oc7ccc(C(=O)O)cc7)cc6C5=O)cc4)cc2)C3=O)cc1 [Compound 27] | 70 ± 6% | Not active | 
Cc1c(NS(=O)(=O)c2cc(C(=O)Nc3ccc(-c4nc5ccccc5[nH]4)cc3)ccc2Cl)c(=O)n(-c2ccccc2)n1C [Compound 28] | 59 ± 5% | 14 ± 6% | 
COc1cc(C(=O)Nc2ccc(-c3nc4cc(NC(=O)c5cc(OC)c(OC)c(OC)c5)ccc4[nH]3)cc2)cc(OC)c1OC [Compound 30] | 1 ± 1% | 11 ± 4% | 
O=C(CSc1nc2ccccc2[nH]1)Nc1ccc(-c2nc3cc(NC(=O)CSc4nc5ccccc5[nH]4)ccc3o2)cc1 [Compound 33] | 58 ± 1% | 36 ± 5% | 
O=C(O)c1ccc(Oc2ccc3c(c2)C(=O)N(c2ccc(Oc4ccc(N5C(=O)c6ccc(Oc7ccc(C(=O)O)cc7)cc6C5=O)cc4)cc2)C3=O)cc1 [Compound 34] |  |  | IC50 [1]: 3.15 ± 0.28 µM
O=C(O)/C=C/C(=O)Nc1ccc(Sc2ccc(Oc3ccc(Sc4ccc(NC(=O)/C=C/C(=O)O)cc4)cc3)cc2)cc1 [Compound 35] |  |  | IC50 [1]: 0.52 ± 0.02 µM
O=C(O)c1ccc(Oc2cccc(N3C(=O)c4ccc(Oc5ccc6c(c5)C(=O)N(c5cccc(Oc7ccc(C(=O)O)c(C(=O)O)c7)c5)C6=O)cc4C3=O)c2)cc1C(=O)O [Compound 36] |  |  | IC50 [1]: 0.63 ± 0.01 µM
O=C(O)COc1ccc(N2C(=O)c3ccc(Oc4ccc5c(c4)C(=O)N(c4ccc(OCC(=O)O)cc4)C5=O)cc3C2=O)cc1 [Compound 37] |  |  | IC50 [2]: > 5 µM
O=C(Nc1cccc(-c2nc3ccccc3s2)c1)c1ccc(Oc2ccc(C(=O)Nc3cccc(-c4nc5ccccc5s4)c3)cc2)cc1 [Compound 38] |  |  | IC50 [2]: 5.75 ± 0.05 µM
O=C(Nc1cccc(C(=O)c2ccccc2)c1)c1ccc(Oc2ccc(C(=O)Nc3cccc(C(=O)c4ccccc4)c3)cc2)cc1 [Compound 40] |  |  | IC50 [2]: > 5 µM
O=C(Nc1cccc(Oc2ccc(S(=O)(=O)c3ccc(Oc4cccc(NC(=O)c5ccc(F)cc5)c4)cc3)cc2)c1)c1ccc(F)cc1 [Compound 46] |  |  | IC50 [2]: > 5 µM
CC(C)(c1ccc(Oc2ccc3c(c2)C(=O)N(c2cccc(C(=O)O)c2)C3=O)cc1)c1ccc(Oc2ccc3c(c2)C(=O)N(c2cccc(C(=O)O)c2)C3=O)cc1 [Compound 48] |  |  | IC50 (µM) ± SD, heparanase inhibitory activity [3]: significant inhibitory potencies; IC50 [1]: 0.91 ± 0.1 µM
CC(C)(c1ccc(Oc2ccc3c(c2)C(=O)N(c2ccc(C(=O)O)cc2)C3=O)cc1)c1ccc(Oc2ccc3c(c2)C(=O)N(c2ccc(C(=O)O)cc2)C3=O)cc1 [Compound 49] |  |  | IC50 (µM) ± SD, heparanase inhibitory activity [3]: significant inhibitory potencies; IC50 [1]: 2.35 ± 0.23 µM
O=C(O)c1cc(NC(=O)c2ccc(Oc3ccc(C(=O)Nc4cc(C(=O)O)cc(C(=O)O)c4)cc3)cc2)cc(C(=O)O)c1 [Compound 50] |  |  | IC50 (µM) ± SD, heparanase inhibitory activity [3]: good inhibitory potencies; IC50 [1]: 2.01 ± 0.13 µM
O=C(Nc1ccc(O)cc1C(=O)O)c1ccc(S(=O)(=O)c2ccc(C(=O)Nc3ccc(O)cc3C(=O)O)cc2)cc1 [Compound 53] |  |  | IC50 [2]: 5.29 ± 0.84 µM; IC50 (µM) ± SD, heparanase inhibitory activity [3]: good inhibitory potencies
O=C(O)c1ccccc1N1C(=O)c2ccc(Oc3ccc(Oc4ccc5c(c4)C(=O)N(c4ccccc4C(=O)O)C5=O)cc3)cc2C1=O [Compound 58] |  |  | IC50 [1]: < 5 µM and 3.78 µM
O=C(O)c1ccc2c(c1)C(=O)N(c1cccc(Oc3cccc(Oc4cccc(N5C(=O)c6ccc(C(=O)O)cc6C5=O)c4)c3)c1)C2=O [Compound 59] |  |  | IC50 (µM) ± SD, heparanase inhibitory activity [3]: good inhibitory potency; IC50 [1]: 2.08 ± 0.16 µM
